Experiments:
A-431 [1] = assay: Antiproliferative activity against human A-431 cells assessed as cell growth inhibition incubated for 24 hrs by MTT assay; format: functional
A549 [2] = assay: Antiproliferative activity against human A549 cells assessed as cell growth inhibition incubated for 24 hrs by MTT assay; format: functional, cell-based; details: A549, 24 h
MDA-MB-231 [3] = assay: Antiproliferative activity against human MDA-MB-231 cells assessed as cell growth inhibition incubated for 48 hrs by MTT assay; format: functional, cell-based; details: MDA-MB-231, 48 h
A549 [4] = assay: cells; format: functional, cell-based; details: Homo sapiens, A549, 48 h
Description: Antiproliferative activity against human A549 cells assessed as cell growth inhibition incubated for 48 hrs by MTT assay

[5] = target: T1, Epidermal growth factor receptor (Homo sapiens, UniProt P00533)
A-431 [6] = assay: cells; format: functional, cell-based; details: Homo sapiens, A-431, 48 h
Description: Antiproliferative activity against human A-431 cells assessed as cell growth inhibition incubated for 48 hrs by MTT assay

Caspase-3 (Homo sapiens) = Caspase-3 (Homo sapiens) (UniProt P42574); assay: Activation of caspase 3 (unknown origin); details: filed as activator
A549 [7] = assay: Induction of apoptosis in human A549 cells measured after 48 hrs by Annexin V-FITC/ Propidium iodide staining based flow cytometry relative to control; format: functional
[8] = target: T1, Epidermal growth factor receptor; assay: Inhibition of EGFR (unknown origin) incubated for 1 hrs by ELISA assay
[9] = target: T2, Receptor tyrosine-protein kinase erbB-2 (Homo sapiens, UniProt P04626); assay: Inhibition of HER2 (unknown origin) incubated for 1 hrs by ELISA assay
MDA-MB-231 [10] = assay: Anticancer activity against human MDA-MB-231 cells assessed as cell growth inhibition incubated for 24 hrs by MTT assay; format: functional, cell-based; details: MDA-MB-231, 24 h
MDA-MB-231 [11] = assay: Cytotoxicity against human MDA-MB-231 assessed as radio sensitizing effect incubated for 24 hrs in presence of gamma irradiation by MTT assay; format: functional
SW480 = assay: Antiproliferative activity against human SW480 cells assessed as cell growth inhibition by MTT assay; format: functional, cell-based
A-431 [12] = assay: Antiproliferative activity against human A-431 cells assessed as cell growth inhibition by MTT assay; format: functional, cell-based
NCI-H1975 [13] = assay: Antiproliferative activity against human NCI-H1975 cells assessed as cell growth inhibition by MTT assay; format: functional, cell-based
A549 [14] = assay: cells; details: Homo sapiens
Description: Antiproliferative activity against human A549 cells assessed as cell growth inhibition by MTT assay

[15] = target: T1, Epidermal growth factor receptor; remark: listed apart in the source
A549 [16] = assay: Antiproliferative activity against human A549 cells assessed as cell growth inhibition incubated for 72 hrs under normoxia condition by SRB assay; format: functional, cell-based; details: A549, 72 h
A549 [17] = assay: Antiproliferative activity against human A549 cells assessed as cell growth inhibition incubated for 72 hrs under hypoxia condition by SRB assay; format: functional, cell-based; details: A549, 72 h
HT-29 [18] = assay: Antiproliferative activity against human HT-29 cells assessed as cell growth inhibition incubated for 72 hrs under normoxia condition by SRB assay; format: functional, cell-based; details: HT-29, 72 h
HT-29 [19] = assay: Antiproliferative activity against human HT-29 cells assessed as cell growth inhibition incubated for 72 hrs under hypoxia condition by SRB assay; format: functional, cell-based; details: HT-29, 72 h
A549 [20] = assay: cells; format: functional, cell-based; details: Homo sapiens, A549, 72 h
Description: Antiproliferative activity against human A549 cells assessed as cell growth inhibition incubated for 72 hrs by MTT assay

A-431 [21] = assay: cells; format: functional, cell-based; details: Homo sapiens, A-431, 72 h
Description: Antiproliferative activity against human A-431 cells assessed as cell growth inhibition incubated for 72 hrs by MTT assay

cells = format: functional, cell-based; details: Homo sapiens, HBE, 72 h
Description: Antiproliferative activity against human HBE cells assessed as cell growth inhibition incubated for 72 hrs by MTT assay

HT-29 [22] = assay: Antiproliferative activity against human HT-29 cells assessed as cell growth inhibition incubated for 72 hrs by MTT assay; format: functional, cell-based; details: Homo sapiens, HT-29, 72 h
NCI-H460 = assay: Antiproliferative activity against human NCI-H460 cells assessed as cell growth inhibition incubated for 72 hrs by MTT assay; format: functional, cell-based; details: NCI-H460, 72 h
[23] = target: Vascular endothelial growth factor receptor 2 (Homo sapiens, UniProt P35968)
MDA-MB-231 [24] = assay: cells; details: Homo sapiens, MDA-MB-231, 72 h
Description: Antiproliferative activity against human MDA-MB-231 cells assessed as cell growth inhibition incubated for 72 hrs by MTT assay

[25] = target: Epidermal growth factor receptor (Homo sapiens, UniProt P00533, L858R/T790M)
NCI-H1975 [26] = assay: Antiproliferative activity against human NCI-H1975 cells assessed as cell growth inhibition incubated for 72 hrs by MTT assay; format: functional, cell-based; details: NCI-H1975, 72 h
HCC827 = assay: cells; format: functional, cell-based; details: Homo sapiens, HCC827, 72 h
Description: Antiproliferative activity against human HCC827 cells assessed as cell growth inhibition incubated for 72 hrs by MTT assay

[27] = target: T1, Epidermal growth factor receptor; assay: Inhibition of human EGFR incubated for 1 hrs in presence of ATP by ELISA assay
A549 [28] = assay: Anticancer activity against human A549 cells assessed as cell growth inhibition incubated for 24 hrs by MTT assay; format: functional, cell-based; details: A549, 24 h
[29] = target: T2, Receptor tyrosine-protein kinase erbB-2
MDA-MB-231 [30] = assay: Antiproliferative activity against human MDA-MB-231 cells assessed as cell growth inhibition incubated for 24 hrs by MTT assay; format: functional, cell-based; details: MDA-MB-231, 24 h

T1 sequence (P00533 whole entry): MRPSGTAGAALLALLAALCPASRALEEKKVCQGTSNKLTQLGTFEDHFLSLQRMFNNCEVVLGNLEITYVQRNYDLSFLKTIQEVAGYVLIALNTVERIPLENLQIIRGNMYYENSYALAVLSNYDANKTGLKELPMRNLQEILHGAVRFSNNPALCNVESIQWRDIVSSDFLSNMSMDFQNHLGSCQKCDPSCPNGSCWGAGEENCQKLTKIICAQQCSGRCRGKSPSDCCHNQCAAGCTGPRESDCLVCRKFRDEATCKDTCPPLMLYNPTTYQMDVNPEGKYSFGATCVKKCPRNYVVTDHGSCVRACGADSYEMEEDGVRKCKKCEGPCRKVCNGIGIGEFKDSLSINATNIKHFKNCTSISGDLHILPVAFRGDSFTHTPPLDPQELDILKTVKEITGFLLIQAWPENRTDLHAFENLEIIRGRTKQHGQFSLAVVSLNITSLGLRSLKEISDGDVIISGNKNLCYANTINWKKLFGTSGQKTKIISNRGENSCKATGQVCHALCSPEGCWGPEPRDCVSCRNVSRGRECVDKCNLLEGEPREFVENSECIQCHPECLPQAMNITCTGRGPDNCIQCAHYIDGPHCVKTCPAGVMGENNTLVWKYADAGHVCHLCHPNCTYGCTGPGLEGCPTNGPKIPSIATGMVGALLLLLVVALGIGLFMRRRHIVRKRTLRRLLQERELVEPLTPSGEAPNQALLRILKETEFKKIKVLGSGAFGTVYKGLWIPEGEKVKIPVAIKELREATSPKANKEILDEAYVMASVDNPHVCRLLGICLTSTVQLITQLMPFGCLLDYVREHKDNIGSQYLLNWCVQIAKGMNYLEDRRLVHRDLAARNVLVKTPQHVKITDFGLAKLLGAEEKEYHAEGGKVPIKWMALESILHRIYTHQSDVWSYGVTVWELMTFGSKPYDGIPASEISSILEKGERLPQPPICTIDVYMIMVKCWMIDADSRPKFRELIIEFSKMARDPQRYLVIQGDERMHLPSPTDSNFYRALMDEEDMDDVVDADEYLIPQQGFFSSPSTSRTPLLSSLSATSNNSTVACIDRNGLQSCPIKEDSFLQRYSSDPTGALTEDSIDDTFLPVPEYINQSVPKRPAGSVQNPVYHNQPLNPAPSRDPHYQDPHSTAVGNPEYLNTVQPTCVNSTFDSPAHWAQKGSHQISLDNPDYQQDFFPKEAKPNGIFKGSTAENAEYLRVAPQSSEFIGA
Sequence of Caspase-3 (Homo sapiens) (P42574 29-175 limits assumed): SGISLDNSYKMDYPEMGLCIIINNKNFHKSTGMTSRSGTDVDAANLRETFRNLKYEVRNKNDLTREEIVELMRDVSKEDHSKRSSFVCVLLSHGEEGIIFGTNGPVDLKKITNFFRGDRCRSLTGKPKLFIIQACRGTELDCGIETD
Sequence of Caspase-3 (Homo sapiens) (P42574 176-277 limits assumed): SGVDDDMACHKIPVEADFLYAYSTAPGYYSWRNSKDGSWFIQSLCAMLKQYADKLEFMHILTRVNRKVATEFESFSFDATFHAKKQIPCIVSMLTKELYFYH
T2 sequence (P04626 whole entry): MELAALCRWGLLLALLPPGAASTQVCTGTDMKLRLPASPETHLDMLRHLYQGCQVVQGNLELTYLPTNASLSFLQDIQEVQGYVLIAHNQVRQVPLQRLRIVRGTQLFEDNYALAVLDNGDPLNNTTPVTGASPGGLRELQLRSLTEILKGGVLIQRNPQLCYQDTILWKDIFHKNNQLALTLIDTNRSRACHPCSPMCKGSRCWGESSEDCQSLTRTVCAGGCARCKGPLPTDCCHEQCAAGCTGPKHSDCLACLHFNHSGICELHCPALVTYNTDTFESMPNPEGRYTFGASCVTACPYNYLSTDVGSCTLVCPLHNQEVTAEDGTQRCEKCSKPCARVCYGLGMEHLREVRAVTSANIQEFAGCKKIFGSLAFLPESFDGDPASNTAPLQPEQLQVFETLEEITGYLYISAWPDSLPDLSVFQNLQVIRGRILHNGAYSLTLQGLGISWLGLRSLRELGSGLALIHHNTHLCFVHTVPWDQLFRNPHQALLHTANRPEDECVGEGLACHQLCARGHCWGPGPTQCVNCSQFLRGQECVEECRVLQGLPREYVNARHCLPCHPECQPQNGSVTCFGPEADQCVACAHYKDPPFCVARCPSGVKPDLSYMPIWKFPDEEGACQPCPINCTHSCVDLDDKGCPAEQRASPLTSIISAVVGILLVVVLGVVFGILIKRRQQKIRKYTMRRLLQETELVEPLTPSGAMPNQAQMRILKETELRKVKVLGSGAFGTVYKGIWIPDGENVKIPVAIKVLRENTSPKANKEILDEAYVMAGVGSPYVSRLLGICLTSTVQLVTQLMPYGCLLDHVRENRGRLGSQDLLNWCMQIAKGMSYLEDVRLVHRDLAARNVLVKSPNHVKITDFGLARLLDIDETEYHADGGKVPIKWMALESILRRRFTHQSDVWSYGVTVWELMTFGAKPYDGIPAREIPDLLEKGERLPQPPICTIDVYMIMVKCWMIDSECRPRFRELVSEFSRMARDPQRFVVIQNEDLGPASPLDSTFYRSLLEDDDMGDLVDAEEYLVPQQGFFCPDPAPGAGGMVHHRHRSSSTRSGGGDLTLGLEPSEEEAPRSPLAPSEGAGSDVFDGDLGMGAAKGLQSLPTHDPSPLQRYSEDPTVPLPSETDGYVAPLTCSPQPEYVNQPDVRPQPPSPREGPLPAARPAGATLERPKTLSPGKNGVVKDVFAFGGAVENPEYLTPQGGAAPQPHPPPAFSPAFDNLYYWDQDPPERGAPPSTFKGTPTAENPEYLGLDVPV
Sequence of Epidermal growth factor receptor (Homo sapiens, UniProt P00533, L858R/T790M) (P00533 25-1210 T790M/L858R limits assumed): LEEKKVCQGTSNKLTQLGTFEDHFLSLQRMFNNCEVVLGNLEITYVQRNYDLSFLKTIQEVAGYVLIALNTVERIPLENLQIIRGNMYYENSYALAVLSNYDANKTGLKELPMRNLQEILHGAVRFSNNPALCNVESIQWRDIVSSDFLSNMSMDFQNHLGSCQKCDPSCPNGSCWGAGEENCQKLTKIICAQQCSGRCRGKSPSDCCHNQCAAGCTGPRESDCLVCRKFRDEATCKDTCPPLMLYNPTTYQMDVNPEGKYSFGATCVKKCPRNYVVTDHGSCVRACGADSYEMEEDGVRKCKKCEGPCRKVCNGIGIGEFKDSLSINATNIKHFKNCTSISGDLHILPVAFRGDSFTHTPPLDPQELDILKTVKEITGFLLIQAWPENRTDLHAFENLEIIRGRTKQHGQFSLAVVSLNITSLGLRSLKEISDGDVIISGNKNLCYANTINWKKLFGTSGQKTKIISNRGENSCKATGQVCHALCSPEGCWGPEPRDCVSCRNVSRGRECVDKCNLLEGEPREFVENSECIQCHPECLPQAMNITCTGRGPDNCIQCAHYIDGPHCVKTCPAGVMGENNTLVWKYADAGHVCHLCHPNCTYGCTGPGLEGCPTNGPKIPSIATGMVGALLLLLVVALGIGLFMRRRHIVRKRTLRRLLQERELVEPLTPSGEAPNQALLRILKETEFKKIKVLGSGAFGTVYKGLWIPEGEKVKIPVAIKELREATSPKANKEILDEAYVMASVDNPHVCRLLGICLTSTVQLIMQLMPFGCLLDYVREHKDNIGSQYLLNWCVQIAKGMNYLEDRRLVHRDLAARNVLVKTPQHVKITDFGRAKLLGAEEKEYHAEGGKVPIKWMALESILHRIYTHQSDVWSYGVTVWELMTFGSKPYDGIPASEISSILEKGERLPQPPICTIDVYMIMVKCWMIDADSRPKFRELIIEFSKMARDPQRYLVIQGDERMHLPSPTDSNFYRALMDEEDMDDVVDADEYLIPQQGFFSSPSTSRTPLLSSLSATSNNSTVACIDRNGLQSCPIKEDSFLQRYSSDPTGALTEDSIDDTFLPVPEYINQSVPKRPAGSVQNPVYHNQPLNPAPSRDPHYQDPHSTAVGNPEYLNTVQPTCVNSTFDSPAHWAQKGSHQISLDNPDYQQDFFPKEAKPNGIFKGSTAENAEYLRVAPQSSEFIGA

COc1cc2ncnc(NCc3ccc(Cl)s3)c2cc1OC
IC5 (A-431 [1]): 3.4 µM
IC50 (A549 [2]): > 50 µM

CCCN(c1ccc(F)c(Cl)c1)c1ncnc2cc(OC)c(OCCCN3CCOCC3)cc12
IC50 (MDA-MB-231 [3]): 10.2 µM
IC50 (A549 [4]): 10.9 µM
IC50 [5]: 0.0214 µM
IC50 (A-431 [6]): 1.68 µM

C#Cc1cccc(Nc2ncnc3cc(OCCOC)c(OCCOC)cc23)c1 [ERLOTINIB]
IC5 (A-431 [1]): 3 µM
Activity (Caspase-3 (Homo sapiens)): 480 pg/mL
Activity (A549 [7]): 53.9%

CN1C(=O)c2ccc(NC(=O)CSc3nc4cc5ccccc5cc4c(=O)n3-c3ccc(S(N)(=O)=O)cc3)cc2C1=O
IC50 [8]: 0.64 µM
IC50 [9]: 1.32 µM
IC50 (MDA-MB-231 [10]): 0.5 µM
Activity (MDA-MB-231 [11]): 0.18 µM

CCN(CC)CCNCc1ccc(-c2ccc3ncnc(Nc4ccc(OCc5cccc(F)c5)c(Cl)c4)c3c2)o1
IC50 (SW480): 6.67 µM
IC50 (A-431 [12]): 2.21 µM
IC50 (NCI-H1975 [13]): 9.79 µM
IC50 (A549 [14]): 5.46 µM

COc1cc2ncnc(Nc3ccc(OCCn4ccnc4[N+](=O)[O-])c(Cl)c3)c2cc1OCCCN1CCOCC1
IC50 [15]: 0.12 µM
IC50 (A549 [16]): 1.59 µM
IC50 (A549 [17]): 1.09 µM
IC50 (HT-29 [18]): 2.46 µM
IC50 (HT-29 [19]): 1.35 µM

C=CC(=O)Nc1cccc(Nc2nc(Nc3ccc(N4CCN(C(C)=O)CC4)cc3OC)ncc2C(F)(F)F)c1 [ROCILETINIB]
IC50 (A549 [20]): 6.5 µM
IC50 (A-431 [21]): 1.29 µM
IC50 (cells): > 40 µM

Cc1cccc(Cl)c1NC(=O)Nc1ccc(-c2nc(NCCN(C)C)c3ccccc3n2)cc1
IC50 (HT-29 [22]): 0.15 µM
IC50 (NCI-H460): 0.089 µM
IC50 (A549 [20]): 0.36 µM
IC50 [23]: 0.093 µM
IC50 (MDA-MB-231 [24]): 0.75 µM

C=CC(=O)Nc1ccccc1Nc1ncnc2cc(OC)c(OCCN3CCOCC3)cc12
IC50 (A549 [20]): 32.4 µM
IC50 [25]: 0.0043 µM
IC50 (A-431 [21]): 13.5 µM
IC50 (NCI-H1975 [26]): 8.7 µM
IC50 (HCC827): 0.65 µM
IC50 (cells): 34 µM

Cc1ccccc1NC(=O)CSc1nc2cc3ccccc3cc2c(=O)n1-c1ccc(S(N)(=O)=O)cc1
IC50 [27]: 0.012 µM
IC50 (A549 [28]): 0.181 µM
IC50 [29]: 0.021 µM

Cc1ccc(NC(=O)CSc2nc3cc4ccccc4cc3c(=O)n2-c2ccc(S(N)(=O)=O)cc2)cc1C
Activity (Caspase-3 (Homo sapiens)): 546 pg/mL
IC50 (MDA-MB-231 [30]): 0.31 µM

CCc1cccc(NC(=O)CSc2nc3cc4ccccc4cc3c(=O)n2-c2ccc(S(N)(=O)=O)cc2)c1
IC50 (A549 [28]): 0.727 µM

From ChEMBL document CHEMBL5230100, “Novel quinazoline-based EGFR kinase inhibitors: A review focussing on SAR and molecular docking studies (2015-2019)” (Eur J Med Chem, 2020)
